The source of these data is ChEMBL document CHEMBL1201862, “PubChem BioAssay data set” (2004).

In one assay the test system is Vero. Kind of assay: cells. It counts as functional. The settings on record: Chlorocebus sabaeus.
Assay [1] deals with T1, DNA repair protein RAD52 homolog (Homo sapiens, UniProt P43351).
T1 sequence (P43351 whole entry): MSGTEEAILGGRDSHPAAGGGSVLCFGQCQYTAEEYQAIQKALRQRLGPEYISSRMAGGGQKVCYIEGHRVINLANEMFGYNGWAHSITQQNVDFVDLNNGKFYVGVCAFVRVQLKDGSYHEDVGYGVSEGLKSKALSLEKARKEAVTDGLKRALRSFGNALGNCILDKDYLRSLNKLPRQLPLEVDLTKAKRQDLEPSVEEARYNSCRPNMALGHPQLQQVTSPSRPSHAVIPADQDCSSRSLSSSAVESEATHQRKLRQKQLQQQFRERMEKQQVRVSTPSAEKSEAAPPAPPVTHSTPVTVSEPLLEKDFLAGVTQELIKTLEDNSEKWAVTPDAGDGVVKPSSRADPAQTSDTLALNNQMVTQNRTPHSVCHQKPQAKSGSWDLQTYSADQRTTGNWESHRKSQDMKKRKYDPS
In kind it is functional, biochemical.

The next assay has as its target Prothrombin (Homo sapiens, UniProt P00734). In words: Thrombin 1536 HTS Dose Response Confirmation. [Related pubchem assays: 1046 (Thrombin 1536 HTS; hits were confirmed in this assay)]. In kind it is functional.
The next assay addresses Estrogen receptor beta (Homo sapiens, UniProt Q92731).
Assay [2] has as its target T2, Corticotropin-releasing factor receptor 2/Corticotropin-releasing factor-binding protein (Homo sapiens, UniProt P24387+Q13324).
T2 sequence (Q13324 whole entry): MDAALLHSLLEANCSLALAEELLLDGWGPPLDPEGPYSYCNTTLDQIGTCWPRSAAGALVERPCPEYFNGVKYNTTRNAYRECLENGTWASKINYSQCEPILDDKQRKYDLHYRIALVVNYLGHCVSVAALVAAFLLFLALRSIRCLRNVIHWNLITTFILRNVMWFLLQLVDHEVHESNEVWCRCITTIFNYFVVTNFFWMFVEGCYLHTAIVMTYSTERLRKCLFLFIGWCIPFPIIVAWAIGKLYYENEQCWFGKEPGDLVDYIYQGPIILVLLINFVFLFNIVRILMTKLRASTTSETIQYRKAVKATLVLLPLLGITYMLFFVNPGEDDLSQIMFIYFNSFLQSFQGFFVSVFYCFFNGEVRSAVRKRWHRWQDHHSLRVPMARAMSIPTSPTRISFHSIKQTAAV
T2 sequence (P24387 whole entry): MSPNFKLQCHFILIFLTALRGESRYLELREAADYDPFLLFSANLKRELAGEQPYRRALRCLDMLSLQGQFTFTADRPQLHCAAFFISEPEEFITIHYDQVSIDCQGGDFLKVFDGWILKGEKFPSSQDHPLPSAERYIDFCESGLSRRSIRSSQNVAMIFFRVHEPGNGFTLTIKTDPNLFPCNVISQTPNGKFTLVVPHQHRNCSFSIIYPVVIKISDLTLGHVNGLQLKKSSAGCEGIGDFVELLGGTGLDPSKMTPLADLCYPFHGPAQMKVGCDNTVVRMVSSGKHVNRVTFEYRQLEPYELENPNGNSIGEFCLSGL
In words: activators of CRF receptor 2 with binding protein – uHTS hits, confirmation (AID 602473). In kind it is functional. The note with it: read-out: EC50_Mean.

Assay [3] addresses T3, Heat shock factor protein 1 (Mus musculus, UniProt P38532).
T3 sequence (P38532 whole entry): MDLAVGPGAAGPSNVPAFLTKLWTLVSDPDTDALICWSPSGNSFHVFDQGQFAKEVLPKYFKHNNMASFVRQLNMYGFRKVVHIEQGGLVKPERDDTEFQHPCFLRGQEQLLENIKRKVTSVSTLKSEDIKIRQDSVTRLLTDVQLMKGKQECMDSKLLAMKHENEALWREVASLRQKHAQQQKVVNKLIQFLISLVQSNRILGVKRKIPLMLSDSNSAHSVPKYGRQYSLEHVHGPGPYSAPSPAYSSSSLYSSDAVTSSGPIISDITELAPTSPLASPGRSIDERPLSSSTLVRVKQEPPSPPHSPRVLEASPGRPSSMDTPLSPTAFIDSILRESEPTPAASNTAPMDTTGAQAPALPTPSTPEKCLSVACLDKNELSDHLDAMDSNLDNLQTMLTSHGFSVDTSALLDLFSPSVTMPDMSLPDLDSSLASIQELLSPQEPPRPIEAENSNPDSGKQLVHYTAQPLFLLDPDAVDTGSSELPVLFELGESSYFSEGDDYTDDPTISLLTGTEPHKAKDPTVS
In words: enhancement of HSF1-driven luciferase signal – cell-based, NIH3T3, luminescence, dose retest, confirmation (AID 435004).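 Also: stress induced by proteasome inhibitor MG132 added 30 min after compound; luciferase reporter driven by HSF1 response element in NIH3T3 cells; actives raise luminescence as potentiators of the MG132 stress response.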 It counts as functional.

The target of assay [4] is T2, Corticotropin-releasing factor receptor 2/Corticotropin-releasing factor-binding protein. In words: Dose Response confirmation of uHTS hits for small molecule antagonists of the CRF-binding protein and CRF-R2 receptor complex. In kind it is functional. The note with it: read-out: IC50_Mean.
The nature of assay [5]: blockers of CRF-binding protein–CRF-R2 complex – cell-based, uHTS hits, 384-well, dose response (AID 651639). In kind it is functional, Homo sapiens. The note with it: read-out: IC50_Mean.
Assay [6] addresses T4, Fatty acid synthase (Homo sapiens, UniProt P49327). Kind of assay: inhibition of human FAS-TE enzyme activity – biochemical, endpoint fluorescence intensity, uHTS hits, dose response (AID 624327).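 Also: fluorescence from hydrolysis of an O-methyl fluorescein acyl ester substrate by the enzyme.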 In kind it is functional.
The target in assay [7] is T4, Fatty acid synthase. In words: inhibition of human FAS-TE enzyme activity – biochemical, kinetic fluorescence intensity, dose response (AID 624326).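 Also: rate of fluorescence rise from hydrolysis of a fluorogenic O-methyl fluorescein ester substrate.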 It counts as functional.
A further assay deals with T5, Cytochrome P450 1A2 (Homo sapiens, UniProt P05177).
T5 sequence (P05177 whole entry): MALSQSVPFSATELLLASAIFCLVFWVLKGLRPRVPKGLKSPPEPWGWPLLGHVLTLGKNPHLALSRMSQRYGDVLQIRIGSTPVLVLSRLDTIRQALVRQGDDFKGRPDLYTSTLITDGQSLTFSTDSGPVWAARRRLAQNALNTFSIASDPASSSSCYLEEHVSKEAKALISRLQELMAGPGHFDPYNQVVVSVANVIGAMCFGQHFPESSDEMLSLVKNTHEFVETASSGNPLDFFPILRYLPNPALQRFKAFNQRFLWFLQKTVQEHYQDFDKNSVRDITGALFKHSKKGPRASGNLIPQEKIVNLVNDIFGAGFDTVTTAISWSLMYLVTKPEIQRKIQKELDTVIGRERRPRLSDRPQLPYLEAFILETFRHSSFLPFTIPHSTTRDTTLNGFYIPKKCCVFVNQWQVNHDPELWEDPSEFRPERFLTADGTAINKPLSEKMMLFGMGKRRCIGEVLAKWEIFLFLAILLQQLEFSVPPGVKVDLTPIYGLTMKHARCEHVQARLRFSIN

The next assay has as its target Cytochrome P450 2C9 (Homo sapiens, UniProt P11712).
The next assay concerns Streptococcus. In words: GAS UMAA2166 growth inhibition – luminescence, BacTiterGlo, counter-screen for streptokinase expression inhibitor project, dose response (AID 1915).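 Also: potency for reduction of bacterial viability or growth.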 In kind it is functional, organism-based.
A short description of assay [8]: viability of uninfected HEp-2 cells – cell-based, HTS, cytotoxicity control for RSV inhibitor project, dose response (AID 2410). In kind it is functional. The note with it: human respiratory syncytial virus.
In assay [9] the test system is Streptococcus sp. 'group A'. In words: Streptococcus pyogenes SK(-)GAS viability under kanamycin – luminescence, BacTiterGlo, confirmation, counter-screen for streptokinase expression inhibitor project, dose response (AID 1900). In kind it is functional, organism-based. (A counterscreen serves to expose hits that act by an unwanted route or on another target.)
The target in another assay is T6, Streptokinase A (Streptococcus pyogenes serotype M1, UniProt P10520).
T6 sequence (P10520 whole entry): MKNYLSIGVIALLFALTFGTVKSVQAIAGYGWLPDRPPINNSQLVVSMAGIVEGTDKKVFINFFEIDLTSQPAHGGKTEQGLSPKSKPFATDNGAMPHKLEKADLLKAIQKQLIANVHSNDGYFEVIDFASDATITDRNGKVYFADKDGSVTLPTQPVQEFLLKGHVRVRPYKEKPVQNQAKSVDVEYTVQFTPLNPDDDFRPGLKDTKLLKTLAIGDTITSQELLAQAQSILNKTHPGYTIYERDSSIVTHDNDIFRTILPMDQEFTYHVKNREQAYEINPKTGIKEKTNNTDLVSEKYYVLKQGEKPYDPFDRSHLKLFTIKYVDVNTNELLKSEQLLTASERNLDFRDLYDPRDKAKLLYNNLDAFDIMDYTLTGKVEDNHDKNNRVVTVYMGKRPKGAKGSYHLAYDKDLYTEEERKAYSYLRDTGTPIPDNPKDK
Kind of assay: viability-normalized secreted streptokinase activity reduction – plasminogen activation absorbance, OD405, dose response (AID 1914).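 Also: secreted streptokinase activity via plasminogen activation per viability signal from cell pellet.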 It counts as functional, Streptococcus pyogenes M1 GAS.

Activity calls are given as the source filed them.

T4 sequence (P49327 whole entry): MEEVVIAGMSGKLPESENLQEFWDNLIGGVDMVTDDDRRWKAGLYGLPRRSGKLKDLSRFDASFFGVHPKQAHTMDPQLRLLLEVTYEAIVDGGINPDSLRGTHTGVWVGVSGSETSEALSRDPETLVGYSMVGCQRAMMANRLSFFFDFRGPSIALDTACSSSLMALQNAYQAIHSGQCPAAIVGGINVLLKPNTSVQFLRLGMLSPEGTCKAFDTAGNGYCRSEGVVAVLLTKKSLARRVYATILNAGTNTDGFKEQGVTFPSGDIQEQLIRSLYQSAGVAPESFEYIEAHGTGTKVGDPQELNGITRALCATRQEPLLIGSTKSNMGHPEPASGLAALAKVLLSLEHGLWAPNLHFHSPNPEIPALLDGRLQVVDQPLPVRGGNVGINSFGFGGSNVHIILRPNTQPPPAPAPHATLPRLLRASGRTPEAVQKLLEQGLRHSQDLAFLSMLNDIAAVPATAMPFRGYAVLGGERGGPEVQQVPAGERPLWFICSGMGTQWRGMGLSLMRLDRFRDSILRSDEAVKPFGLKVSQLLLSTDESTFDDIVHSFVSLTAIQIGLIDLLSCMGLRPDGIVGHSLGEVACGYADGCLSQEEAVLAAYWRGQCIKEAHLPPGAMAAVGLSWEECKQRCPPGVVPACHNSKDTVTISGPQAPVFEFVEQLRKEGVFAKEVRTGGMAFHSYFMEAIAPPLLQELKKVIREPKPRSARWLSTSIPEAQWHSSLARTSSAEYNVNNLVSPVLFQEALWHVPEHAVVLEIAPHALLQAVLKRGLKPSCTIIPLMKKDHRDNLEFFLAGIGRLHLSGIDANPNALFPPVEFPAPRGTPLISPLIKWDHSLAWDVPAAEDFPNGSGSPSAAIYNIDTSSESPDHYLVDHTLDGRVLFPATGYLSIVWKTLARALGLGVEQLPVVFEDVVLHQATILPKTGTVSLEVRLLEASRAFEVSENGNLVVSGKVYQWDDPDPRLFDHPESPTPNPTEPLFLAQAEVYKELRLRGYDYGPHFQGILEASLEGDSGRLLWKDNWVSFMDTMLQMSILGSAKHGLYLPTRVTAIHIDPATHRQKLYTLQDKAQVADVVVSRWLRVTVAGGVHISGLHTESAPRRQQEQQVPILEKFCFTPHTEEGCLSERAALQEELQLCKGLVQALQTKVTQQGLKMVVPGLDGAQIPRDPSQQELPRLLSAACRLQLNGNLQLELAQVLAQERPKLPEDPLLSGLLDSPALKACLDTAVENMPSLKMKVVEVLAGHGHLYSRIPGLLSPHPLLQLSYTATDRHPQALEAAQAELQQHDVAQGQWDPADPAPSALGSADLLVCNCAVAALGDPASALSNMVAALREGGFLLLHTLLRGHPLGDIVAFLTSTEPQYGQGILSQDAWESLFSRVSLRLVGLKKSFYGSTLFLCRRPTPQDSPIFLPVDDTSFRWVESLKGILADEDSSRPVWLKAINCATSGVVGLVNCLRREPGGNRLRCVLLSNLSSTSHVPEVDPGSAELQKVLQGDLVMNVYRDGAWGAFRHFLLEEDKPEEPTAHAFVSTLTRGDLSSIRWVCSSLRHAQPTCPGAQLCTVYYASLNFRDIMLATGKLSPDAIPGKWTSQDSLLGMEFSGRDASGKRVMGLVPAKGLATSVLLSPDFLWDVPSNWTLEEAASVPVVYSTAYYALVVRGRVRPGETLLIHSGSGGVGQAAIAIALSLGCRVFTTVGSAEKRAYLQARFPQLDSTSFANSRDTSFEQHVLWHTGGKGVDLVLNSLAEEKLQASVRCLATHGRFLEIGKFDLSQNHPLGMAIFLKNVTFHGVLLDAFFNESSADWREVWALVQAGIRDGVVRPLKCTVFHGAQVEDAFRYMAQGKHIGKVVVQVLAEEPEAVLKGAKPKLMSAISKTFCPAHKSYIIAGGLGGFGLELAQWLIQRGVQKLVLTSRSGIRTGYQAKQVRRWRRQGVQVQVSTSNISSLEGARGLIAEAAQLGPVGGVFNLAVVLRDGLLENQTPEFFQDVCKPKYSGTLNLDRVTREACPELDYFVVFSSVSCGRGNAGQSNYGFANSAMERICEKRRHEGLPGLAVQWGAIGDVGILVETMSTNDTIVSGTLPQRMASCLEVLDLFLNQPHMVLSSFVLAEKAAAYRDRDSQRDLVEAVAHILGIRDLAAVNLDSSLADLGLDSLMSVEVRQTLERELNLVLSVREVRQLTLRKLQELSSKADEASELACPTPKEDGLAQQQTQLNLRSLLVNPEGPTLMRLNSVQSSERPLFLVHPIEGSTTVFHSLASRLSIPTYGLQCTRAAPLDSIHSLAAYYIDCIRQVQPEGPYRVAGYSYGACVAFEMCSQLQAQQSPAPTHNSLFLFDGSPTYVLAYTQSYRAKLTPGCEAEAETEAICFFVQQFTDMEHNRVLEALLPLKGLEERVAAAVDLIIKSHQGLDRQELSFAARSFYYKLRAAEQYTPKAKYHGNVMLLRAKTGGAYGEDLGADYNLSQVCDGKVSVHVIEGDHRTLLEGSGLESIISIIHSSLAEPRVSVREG
Chain of Estrogen receptor beta (Q92731 whole entry): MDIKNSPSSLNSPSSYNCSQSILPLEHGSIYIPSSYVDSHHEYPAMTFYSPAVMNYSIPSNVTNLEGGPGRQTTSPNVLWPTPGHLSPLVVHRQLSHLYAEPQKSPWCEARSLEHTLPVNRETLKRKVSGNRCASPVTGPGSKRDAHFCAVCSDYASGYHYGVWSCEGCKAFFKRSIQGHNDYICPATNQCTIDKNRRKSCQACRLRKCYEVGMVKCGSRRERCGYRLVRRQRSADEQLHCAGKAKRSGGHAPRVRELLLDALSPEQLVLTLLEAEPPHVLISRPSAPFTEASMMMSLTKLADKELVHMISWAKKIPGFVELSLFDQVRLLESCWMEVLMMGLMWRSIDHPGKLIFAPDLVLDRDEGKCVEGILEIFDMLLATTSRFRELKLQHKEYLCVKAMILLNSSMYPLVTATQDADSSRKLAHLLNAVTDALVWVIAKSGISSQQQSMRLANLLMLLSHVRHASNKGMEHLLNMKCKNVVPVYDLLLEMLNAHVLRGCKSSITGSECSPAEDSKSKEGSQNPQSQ
Chain of Cytochrome P450 2C9 (P11712 whole entry): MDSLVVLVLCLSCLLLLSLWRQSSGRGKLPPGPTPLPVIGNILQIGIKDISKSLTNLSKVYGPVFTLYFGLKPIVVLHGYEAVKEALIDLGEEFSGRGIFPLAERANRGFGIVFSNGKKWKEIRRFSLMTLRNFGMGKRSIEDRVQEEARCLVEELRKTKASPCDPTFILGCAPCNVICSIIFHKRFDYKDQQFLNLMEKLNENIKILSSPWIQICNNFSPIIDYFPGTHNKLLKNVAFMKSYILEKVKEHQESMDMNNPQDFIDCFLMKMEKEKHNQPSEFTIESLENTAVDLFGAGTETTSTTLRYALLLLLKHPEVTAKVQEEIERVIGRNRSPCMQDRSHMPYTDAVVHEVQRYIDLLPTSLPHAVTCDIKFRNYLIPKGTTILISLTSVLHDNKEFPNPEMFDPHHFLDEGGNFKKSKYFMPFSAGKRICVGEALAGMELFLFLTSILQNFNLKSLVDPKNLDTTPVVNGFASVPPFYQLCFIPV

In the case of `CCCCc1nc2sc3c(SCCN(C)C)ncnc3c2c2c1CCC2`, the CC50 (commonly the concentration at which the toxic effect on the cells reaches its halfway point) in the assay on Vero is 20.6 µM (active). Besides, the AC50 (commonly the concentration at which the activity in the assay is half-maximal) in [1] was 19.7 µM (active).
Take `COc1ccccc1NC(=O)c1sc2ncn(Cc3cccc(C)c3)c(=O)c2c1C`: the IC50 against Prothrombin is recorded as > 50 µM (not active).
On to `CCn1cc(C(=O)NCc2ccco2)c(=O)c2cc(S(=O)(=O)N3CCCC3)ccc21`, for which the IC50 at Prothrombin was 1.31 µM (active).
With `O=C(Nc1nccs1)c1ccc2nccnc2c1`, at Estrogen receptor beta, the IC50 was 14.9 µM (active).
On the same count and under the same terms, the figure for `Nc1nonc1NC(=O)CSc1ncccc1C(=O)O` is > 50 µM (not active).
Consider `CC(C)N1CCc2c(sc(NC(=O)c3cc4cc([N+](=O)[O-])ccc4s3)c2C(N)=O)C1`, for which the half-maximal activity concentration (AC50) in assay [1] is 10.3 µM (active). Also, the EC50 in assay [2] was > 53 µM (inactive).
As to `O=[N+]([O-])c1ccc(Sc2ccccc2)nc1`, the EC50 in assay [3] was > 260 µM (inactive); in assay [2], > 53 µM (inactive). Moreover, the IC50 in [4] is < 0.368 µM (active); in assay [5], 5.42 µM (active).
`CC1CCN(S(=O)(=O)c2ccc3c(c2)c(=O)c(C(=O)NCc2ccco2)cn3C)CC1`: the results for the IC50 at Fatty acid synthase [6] and at Fatty acid synthase [7] were 3.81 µM (active) and 2.4 µM (active), respectively.
On to `Cc1nc(Sc2ccccc2)c(C#N)c(C)c1[N+](=O)[O-]`, for which the IC50 on Fatty acid synthase [6] was 13.9 µM (active); at Fatty acid synthase [7], 8.81 µM (active).
For the molecule `O=C(NCc1ccc2c(c1)OCO2)c1c(F)c(F)c(F)c(F)c1F`, the IC50 in assay [4] is 18.7 µM (active); in [5], 8.28 µM (active). Besides, the EC50 in [2] was > 53 µM (inactive).
As for `O=C(Cn1nc(-c2ccco2)ccc1=O)Nc1cc(C(F)(F)F)ccc1Cl`, the results for the IC50 at Fatty acid synthase [6] and at Fatty acid synthase [7] were 11.8 µM (active) and 13.1 µM (active), respectively.
For `COC(=O)c1nnc(NC(=O)c2ccccc2)[nH]1`, at Prothrombin, the IC50 was 0.0545 µM (active). Moreover, the concentration at half-maximal activity (AC50) on Cytochrome P450 1A2 is 17.8 µM (inconclusive); at Cytochrome P450 2C9 it was 3.98 µM (inconclusive).
Take `Cc1ccc(S(=O)(=O)c2nnn3c2nc(N2CCOCC2)c2ccccc23)c(C)c1`: the IC50 in assay [4] was < 0.368 µM (active); in assay [5], > 20 µM (inactive). Further, in assay [2], the EC50 is > 53 µM (inactive).
For `COC(=O)c1sc(-c2ccc(C(C)(C)C)cc2)cc1NC(=O)CSCC(=O)O`, the EC50 with Streptococcus was 12.1 µM (active); in assay [9] it was 8.94 µM (active); in [2], 36.8 µM (active); on Streptokinase A, 6.69 µM (active). Besides, the CC50 in assay [8] was 15.7 µM (active). Moreover, the IC50 in assay [4] is 4.1 µM (active); in [5] it was 14.1 µM (active).
Consider `COc1cccc(NC(=O)CN2C(=O)CSc3ccc(S(=O)(=O)N4CCC(C)CC4)cc32)c1`, for which the IC50 at Fatty acid synthase [6] is 6.24 µM (active); at Fatty acid synthase [7], 2.44 µM (active).
As for `CC(C)c1ccc(S(=O)(=O)c2nnn3c2nc(NCC2CCCO2)c2ccccc23)cc1` (centres undefined), the IC50 on Fatty acid synthase [6] was 1.72 µM (active); at Fatty acid synthase [7] it was 1.34 µM (active).
Turning to `CCCC(=O)n1nc(-c2ccccc2)nc1SC`, the IC50 at Prothrombin is 0.935 µM (active).
